Tests used:
[1] = system: CAP45.2.00.G3 pseudovirus (subtype C); type: cell-based, HIV-1; conditions: CAP45.2.00.G3, subtype C, R5; TZM-bl, 48 h; triplicate, mean ± SD of three independent experiments
Excerpt: (§1) A panel of plasmids encoding HIV-1 Envs were obtained through the AIDS Research and Reference Reagent Program (ARRRP), Division of AIDS, NIAID, NIH, including subtype A Env clones pSVIII-92RW020.5 and 92UG037.8 from Dr. B.H. Hahn; subtype B Env clones SC422661.8, TRO.11 and AC10.0.29 from Drs. D. Montefiori, F. Gao and M. Li, pRHPA4259.7 and pREJO4541.67 from Drs. B.H. Hahn and J.F. Salazar-Gonzalez, and pCAAN5342.A2 from Drs. B.H. Hahn and D.L. Kothe; subtype C Env clones Du172.17 and Du422.1 from Drs. D. Montefiori, F. Gao, S. Abdool Karim and G. Ramjee, CAP45.2.00.G3 from Drs. L. Morris, K. Mlisana and D. Montefiori, ZM197M.PB7 from Drs. B.H. Hahn, Y. Li and J.F. Salazar-Gonzalez, ZM109F.PB4 from Drs. E. Hunter and C. Derdeyn. Six CRF07_BC Env clones (CH064.20, CH070.1, CH091.9, CH110.2, CH119.10 and CH120.6) were generous gifts by Dr. Y. Shao in the Chinese Center for Disease Control and Prevention, Beijing, China. A panel of Env clones derived from subtype B′ (B01, B02, B04, and 43-22), CRF01_AE (SHX335.24, YN192.31, AE01, AE03, GX2010.36, GX11.13, GX2010.36H, BJ5.11), and CRF07_BC (BC02, BC03, BC05, BC07, BC14, SC19-15, BJ22-5, YN148R-9, XJ50-6, HB5-3) were kindly provided by Dr. Y. Wang from the National Institute for the Control of Pharmaceutical and Biological Products, Beijing, China.

[2] = system: XJ50-6 pseudovirus (CRF07_BC); type: cell-based, HIV-1; conditions: XJ50-6, CRF07_BC, R5; TZM-bl, 48 h; triplicate, mean ± SD of at least three independent experiments
Excerpt: as §1

[3] = system: CAAN5342 pseudovirus (subtype B); type: cell-based, HIV-1; conditions: R5, TZM-bl, 48 h, triplicate, mean ± SD of three independent experiments
Excerpt: as §1

[4] = system: CH070 pseudovirus (CRF07_BC); type: cell-based, HIV-1; conditions: R5, TZM-bl, 48 h, triplicate, mean ± SD of at least three independent experiments
Excerpt: as §1

[5] = system: CH119 pseudovirus (CRF07_BC); type: cell-based, HIV-1; conditions: R5, TZM-bl, 48 h, triplicate, mean ± SD of at least three independent experiments
Excerpt: as §1

[6] = system: SHX335.24 pseudovirus (CRF01_AE); type: cell-based, HIV-1; conditions: SHX335.24, CRF01_AE, R5; TZM-bl, 48 h; triplicate, mean ± SD of at least three independent experiments
Excerpt: as §1

[7] = system: BC14 pseudovirus (CRF07_BC); type: cell-based, HIV-1; conditions: R5, TZM-bl, 48 h, triplicate, mean ± SD of at least three independent experiments
Excerpt: as §1

[8] = system: BC07 pseudovirus (CRF07_BC); type: cell-based, HIV-1; conditions: R5, TZM-bl, 48 h, triplicate, mean ± SD of at least three independent experiments
Excerpt: as §1

[9] = system: B04 pseudovirus (subtype B′); type: cell-based, HIV-1; conditions: R5, TZM-bl, 48 h, triplicate, mean ± SD of at least three independent experiments
Excerpt: as §1

[10] = system: HB5-3 pseudovirus (CRF07_BC); type: cell-based, HIV-1; conditions: HB5-3, CRF07_BC, R5; TZM-bl, 48 h; triplicate, mean ± SD of at least three independent experiments
Excerpt: as §1

[11] = system: AC10.0.29 pseudovirus (subtype B); type: cell-based, HIV-1; conditions: AC10.0.29, subtype B, R5; TZM-bl, 48 h; triplicate, mean ± SD of three independent experiments
Excerpt: as §1

[12] = system: GX2010.36 pseudovirus (CRF01_AE); type: cell-based, HIV-1; conditions: GX2010.36, CRF01_AE, R5; TZM-bl, 48 h; triplicate, mean ± SD of at least three independent experiments
Excerpt: as §1

[13] = system: CH064 pseudovirus (CRF07_BC); type: cell-based, HIV-1; conditions: R5, TZM-bl, 48 h, triplicate, mean ± SD of at least three independent experiments
Excerpt: as §1

[14] = system: B01 pseudovirus (subtype B′); type: cell-based, HIV-1; conditions: R5, TZM-bl, 48 h, triplicate, mean ± SD of at least three independent experiments
Excerpt: as §1

[15] = system: REJO4541 pseudovirus (subtype B); type: cell-based, HIV-1; conditions: R5, TZM-bl, 48 h, triplicate, mean ± SD of three independent experiments
Excerpt: as §1

[16] = system: 92UG037.8 pseudovirus (subtype A); type: cell-based, HIV-1; conditions: 92UG037.8, subtype A, R5; TZM-bl, 48 h; triplicate, mean ± SD of three independent experiments
Excerpt: as §1

[17] = system: SC422661.8 pseudovirus (subtype B); type: cell-based, HIV-1; conditions: SC422661.8, subtype B, R5; TZM-bl, 48 h; triplicate, mean ± SD of three independent experiments
Excerpt: as §1

[18] = system: BC02 pseudovirus (CRF07_BC); type: cell-based, HIV-1; conditions: R5, TZM-bl, 48 h, triplicate, mean ± SD of at least three independent experiments
Excerpt: as §1

[19] = system: BJ22-5 pseudovirus (CRF07_BC); type: cell-based, HIV-1; conditions: BJ22-5, CRF07_BC, R5; TZM-bl, 48 h; triplicate, mean ± SD of at least three independent experiments
Excerpt: as §1

[20] = system: HIV-1 subtype B pseudoviruses; type: cell-based
Excerpt: as §1

[21] = system: HIV-1 subtype C pseudoviruses; type: cell-based; conditions: mean over subtype C pseudoviruses of Table 1; TZM-bl
Excerpt: as §1

[22] = system: HIV-1 CRF07_BC pseudoviruses; type: cell-based; conditions: mean over CRF07_BC pseudoviruses of Table 2; TZM-bl
Excerpt: as §1

[23] = system: HIV-1 CRF01_AE pseudoviruses; type: cell-based; conditions: mean over CRF01_AE pseudoviruses of Table 2; TZM-bl
Excerpt: as §1

enfuvirtide was tested, and the IC50 [1] was 96.2 ± 6.91 nM, the IC50 [2] was 81.1 ± 17.6 nM and the IC50 [3] was 723 ± 53.5 nM. The IC50 [4] was 136 ± 36.4 nM, the IC50 [5] was 22.1 ± 2.74 nM and the IC50 [6] was 51 ± 7.35 nM. The IC50 [7] was 109 ± 52.6 nM, the IC50 [8] was 12.5 ± 1.58 nM and the IC50 [9] was 7.8 ± 0.43 nM. For the same substance, the IC50 [10] was 23.1 ± 2.55 nM, the IC50 [11] was 10.1 ± 0.45 nM and the IC50 [12] was 18.1 ± 3.75 nM. For the same substance, the IC50 [13] was 61.7 ± 12.5 nM, the IC50 [14] was 49.5 ± 2.41 nM and the IC50 [15] was 78.1 ± 11.3 nM. The IC50 [16] was 3.55 ± 0.95 nM, the IC50 [17] was 28.2 ± 5.92 nM and the IC50 [18] was 2.6 ± 0.48 nM. For the same substance, the IC50 [19] was 25.8 ± 4.17 nM, the IC50 ([20]; mean over subtype B pseudoviruses of Table 1, TZM-bl) was 214 nM and the “sensitivity of some subtype B Envs (in words)” value ([20]; some Envs derived from subtype B, compared to other HIV-1 isolates) was “much less sensitive”. For the same substance, the IC50 [21] was 55.2 nM, the IC50 [22] was 47.2 nM and the IC50 [23] was 68.1 nM.

Reference: paper PMC3293837, “Biophysical Property and Broad Anti-HIV Activity of Albuvirtide, a 3-Maleimimidopropionic Acid-Modified Peptide Fusion Inhibitor” (PLoS ONE, 2012)
